Patent publication US9994554B2, “Barbiturate and thiobarbiturate compounds for use in cancer therapy” (NUHOPE, LLC, priority 2011, dated 2018)
Values joined by “and” are separate entries in the source; they are usually repeats but may differ in a detail not shown here. Equal entries are not always repeated. Where two headings read alike, the source gives them in different places. *1 amine or outer side, *2 acyl side, *3 side chain or, on linkers, in order; H or OH if unused. Where a SMILES comes first, the peptide text is derived from it. Bridges are numbered along the chain shown (N, C = ends). Roman numbers before positions name the chains, in order. [ ]: non-standard residue; d: D form. Actinocin(9to1) = Cc1c2oc3c(C)ccc(C(=O)[*:1])c3nc-2c(C(=O)[*:2])c(N)c1=O; NMeV = CN[C@H](C(=O)O)C(C)C; Sar = CNCC(=O)O

Columns and labels:
U251 = experiment: Cytotoxicity (MTS or SRB assay), U251; assay type: cell-based; conditions: U-251; human astrocytoma or glioblastoma cell line
Description: (§5) Human neuroblastoma cell lines were cultured in Dulbecco's Modified Eagle Medium (DMEM)/F12 media. Human glioma cells were ordered from American Type Culture Collection (ATCC, Manassas, Va.), and maintained in DMEM with 4×10^−3M L-glutamine, 100 U/ml penicillin, 100 μg/ml streptomycin, and 10% fetal bovine serum (FBS). All experiments were performed at 37° C. in 5% CO2 atmosphere under cell culture conditions. Prior to γ-radiation or exposure to chemotherapeutic agents, the glioma cells were plated at a density of 156 to 8,000 cells per well in 96 well plates to account for differences in growth rates, and to obtain similar cell densities for the experimental manipulations, and cultured overnight. […] Cell cytotoxicity assay was determined by MTS [3-(4,5-dimethylthiazol-2-yl)-5-(3-carboxymethoxyphenyl)-2-(4-sulfophenyl)-2H-tetrazolium, inner salt] Cell Proliferation Assay (Promega, Madison, Wis.) or sulforhodamine B (SRB) assay at the end of the exposure period (47, 48).

MCF7 = experiment: Cytotoxicity, MCF7; assay type: cell-based; conditions: MCF7; human breast adenocarcinoma cell line
Description: as §5

OVCAR-3 = experiment: Cytotoxicity, ovarian cancer cells; assay type: cell-based; conditions: OVCAR-3; human ovarian carcinoma cell line
Description: To assess the effect of CC-I on the ovarian cancer cells, the cells were cultured overnight at a density of 5,000 to 10,000 cells per well in 96 well plates. Then the cells were treated with different concentrations of CC-I (Formula IV) or Formula V for another 3-6 days before cytotoxicity assay using MTS or SRB assay. The IC50 or LD50, 50% inhibition or lethal dose, of compounds is also determined using statistical software (GraphPad) as a general indicator of toxicity.

CCF-STTG1 [1] = experiment: cells; conditions: for IC50: Homo sapiens, CCF-STTG1, read-out: IC50 (μM) CCF-STTG1
Description: (§1) Human neuroblastoma cell lines were cultured in Dulbecco's Modified Eagle Medium (DMEM)/F12 media. Human glioma cells were ordered from American Type Culture Collection (ATCC, Manassas, Va.), and maintained in DMEM with 4×10^−3M L-glutamine, 100 U/ml penicillin, 100 μg/ml streptomycin, and 10% fetal bovine serum (FBS). All experiments were performed at 37° C. in 5% CO2 atmosphere under cell culture conditions. Prior to γ-radiation or exposure to chemotherapeutic agents, the glioma cells were plated at a density of 156 to 8,000 cells per well in 96 well plates to account for differences in growth rates, and to obtain similar cell densities for the experimental manipulations, and cultured overnight. Then cells received different dosages of γ-radiation from a ^60Co source GammaCell 220 (Nordion International Inc, Ontario, Canada) or chemotherapeutic agents for another 2-6 days. Cell cytotoxicity assay was determined by MTS [3-(4,5-dimethylthiazol-2-yl)-5-(3-carboxymethoxyphenyl)-2-(4-sulfophenyl)-2H-tetrazolium, inner salt] Cell Proliferation Assay (Promega, Madison, Wis.) or sulforhodamine B (SRB) assay at the end of the exposure period (47, 48).
Temodar®-resistant cell lines were used to screen for compounds having the ability to decelerate the growth of, or kill, Temodar®-resistant cells. The efficacy of over 15,000 different compounds in the Drug Discovery Core at Pennsylvania State Hershey Medical Center was tested on Temodar®-resistant human neuroblastoma SH-SY5Y and human glioma CCF-STTG1 cell lines with a colorimetric cytotoxicity assay, the sulforhodamine B (SRB) assay (53).
(§2) Chemotype moiety compounds of CC-I were also tested on the Temodar-resistant CCF-STTG1 and Temodar®-sensitive U87-MG cell lines. The glioma cell culture and treatment is as described above.
(§3) The human glioma CCF-STTG1 cell lines were plated at a density of 5,000 cells per well in 96 well plates under standard DMEM cell culture conditions and then exposed to different concentrations of CC-I, merbarone, or ICRF-193 for 5 days. Merbarone and ICRF-193 are both topoisomerase II inhibitors (55, 56).

U87-MG = experiment: cells; conditions: Homo sapiens, U-87 MG, read-out: IC50 (μM) U87-MG
Description: as §1, §2, §3

SW1088 = experiment: Cytotoxicity (MTS or SRB assay), SW1088; assay type: cell-based, human
Description: Human glioma cells were ordered from American Type Culture Collection (ATCC, Manassas, Va.), and maintained in DMEM with 4×10^−3M L-glutamine, 100 U/ml penicillin, 100 μg/ml streptomycin, and 10% fetal bovine serum (FBS). All experiments were performed at 37° C. in 5% CO2 atmosphere under cell culture conditions. […] Then cells received different dosages of γ-radiation from a ^60Co source GammaCell 220 (Nordion International Inc, Ontario, Canada) or chemotherapeutic agents for another 2-6 days. Cell cytotoxicity assay was determined by MTS [3-(4,5-dimethylthiazol-2-yl)-5-(3-carboxymethoxyphenyl)-2-(4-sulfophenyl)-2H-tetrazolium, inner salt] Cell Proliferation Assay (Promega, Madison, Wis.) or sulforhodamine B (SRB) assay at the end of the exposure period (47, 48).

SVGp12 = experiment: Cytotoxicity, SVGp12; assay type: cell-based; conditions: SVGp12; SV40 transformed human astrocyte cell line
Description: as §5

MCF10A = experiment: Cytotoxicity, MCF10A; assay type: cell-based, human; conditions: Homo sapiens, MCF-10A; immortalized, non-transformed mammary epithelial cell line
CCF-STTG1 [2] = experiment: CCF-STTG1 resazurin cell assay (Example 14); assay type: cell-based; conditions: Homo sapiens, read-out: Brain - Astrocytoma CCF-STTG1 pXC50 (converted)
Description: (§4) In this assay, cell lines were tested broadly using the same method as the U87 cell line assay of Example 13. NCI-H1299, CCF-STTG1 and Hep G2 cells were obtained from the ATCC. These cell lines were tested as previously described with the following modifications. NCI-H1299, CCF-STTG1 were maintained in RPMI-1640 Medium plus 10% fetal bovine serum and 1% penicillin/streptomycin, while Hep G2 cells were maintained in Eagle's Minimum Essential Medium plus 10% fetal bovine serum and 1% penicillin/streptomycin. Cells were plated at a density of 1×10^4 per ml except CFF-STTG1 cells which were seeded at a density of 2.5×10^4 per ml.

NCI-H1299 = NCI-H1299 resazurin cell assay (Example 14); assay type: cell-based; conditions: Homo sapiens, read-out: Lung - Non small cell lung carcinoma NCI-H1299 pXC50 (converted)
Description: as §4

Hep G2 = Hep G2 resazurin cell assay (Example 14); assay type: cell-based; conditions: Homo sapiens, HepG2; read-out: Liver - Hepatocellular carcinoma Hep G2 pXC50 (converted)
Description: as §4

U87-MG cells = experiment: U87-MG resazurin cell assay (Example 13); assay type: cell-based; conditions: Homo sapiens, U-87 MG
Description: U87-MG cells were obtained from the ATCC, LGC Standards (#HTB-14). The cells were screened for mycoplasma (Mycoplasma Experience) and maintained in Biowhittaker Alpha MEM (Lonza #BE02-002F+10% dialyzed US FBS serum (Invitrogen #26400-044), 1% Penstrep (Gibco #15140-122).
Compounds to be tested were transferred into column 1 of a hit plate (96-well PPV Greiner #651201). 20 ul of DMSO was added to columns 2 to 11. The top concentration was 10 mM.
Serial dilution, ten-point one in three dilution curves were created using Perkin Elmer Janus (20 ul clear Robopack disposable tips #6000677 used).
2 ul of each of the compounds was transferred by pre-dispensing into black, clear bottom 96-well CellBIND Corning plates (Fisher #DPS-184-030R) using Platemate 2×2 (ThermoFisher Darts #5506).
200 μl of U87-MG cells were added to columns 1 to 11 at a density of 1000 cells per ml, and media only was dispensed into control column 12 using Wellmate (Small bore tubing set #201-30002).
After 5 days (120 hrs) incubation at 37° C. under 5% CO2 in a humidified incubator, the assay was “stopped” by addition of Resazurin sodium salt at 0.5 mM final concentration (Sigma R7017). The plates were incubated for a further 4 hrs before resorufin readout was taken from a Perkin Elmer EnVision, 550 nm excitation (photo550, Barcode 312), 580 nm emission (M580, Barcode 233), Top Mirror BODIPY (D555, Barcode 405).

C282Y/SH-SY5Y = experiment: cells; assay type: cell-based; conditions: C282Y HFE transfected human neuroblastoma SH-SY5Y
Description: as §5

WT/SH-SY5Y = experiment: Cytotoxicity, WT/SH-SY5Y neuroblastoma; assay type: cell-based; conditions: wild type HFE transfected human neuroblastoma SH-SY5Y
Description: as §5

CCF-STTG1 cells = experiment: FITC-Annexin V/propidium iodide apoptosis assay; assay type: cell-based, human; conditions: CCF-STTG1, at 0.05 μg/ml (39.8 nM)
Description: An FITC-labeled Annexin V/propidium iodide apoptosis assay kit (Molecular Probes) was used to determine whether CC-I induces apoptosis in an astrocytoma cell line. […] The percentage of apoptotic cells by the CC-I treatment in CCF-STTG1 cells is from 10.9±0.16% at 5 pig/ml ([…]) to 48.7±0.33% at 10 μg/ml (36.2 μM). By comparison, the positive control, actinomycin D, induced apoptosis in 47.8±0.04% of the cells at 0.05 μg/ml (39.8 nM).

[3] = U87-MG, 5 days (120 hrs) incubation, read-out: Activity Score (Mean pXC50) (converted)
[4] = read-out: Brain - Glioblastoma U87 pXC50 (converted)

O=C1NC(=S)NC(=O)C1=C/C=C/c1ccccc1 [Formula V]
IC50 (U251): 2.5 µM
IC50 (MCF7): 3.2 µM
IC50 (OVCAR-3): 4.3 µM
IC50 (CCF-STTG1 [1]): 3 µM
cytotoxicity to CCF-STTG1 cell lines (in words) (CCF-STTG1 [1]; Temodar-resistant CCF-STTG1): greatest toxicity
IC50 (U87-MG): 1.8 µM
IC50 (SW1088; Homo sapiens, SW1088, read-out: IC50 (μM) SW1088): 1.2 µM
LD50 (SW1088; SW-1088 astrocytoma cells): 0.3 μg/ml and 1.2 μM
IC50 (SVGp12): 1.6 µM
IC50 (MCF10A): 1.7 µM

O=C1NC(=O)C(=C/C=C/c2ccco2)C(=O)N1 [DDD00124807]
IC50 (CCF-STTG1 [2]): 10 to 31.6 µM
IC50 (NCI-H1299): 1 to 10 µM
IC50 (Hep G2): 10 to 31.6 µM
IC50 (U87-MG cells; [3]): 10 to 31.6 µM
IC50 (U87-MG cells; [4]): 10 to 31.6 µM

CCN1C(=O)NC(=O)/C(=C\C=C\c2ccccc2)C1=O [DDD00124809]
IC50 (CCF-STTG1 [2]): 1 to 10 µM
IC50 (Hep G2): 1 to 10 µM
IC50 (U87-MG cells; [3]): 1 to 10 µM
IC50 (U87-MG cells; [4]): 1 to 10 µM

Cn1nnc2c(C(N)=O)ncn2c1=O [Temodar ®, Temozolomide, reference compound]
IC50 (U251): 47.2 µM
IC50 (CCF-STTG1 [2]): > 100 µM
IC50 (C282Y/SH-SY5Y): 92 µM
IC50 (CCF-STTG1 [1]): 306 µM
IC50 (U87-MG): 13.6 µM
IC50 (NCI-H1299): > 100 µM
IC50 (SW1088; SW1088, human astrocytoma or glioblastoma cell line, read-out: IC50 (μM) SW1088): 29.5 µM
IC50 (WT/SH-SY5Y): 103 µM
IC50 (Hep G2): > 100 µM
IC50 (U87-MG cells; [4]): 10 to 31.6 µM

Cc1c2oc3c(C)ccc(C(=O)N[C@@H]4C(=O)N[C@H](C(C)C)C(=O)N5CCC[C@H]5C(=O)N(C)CC(=O)N(C)[C@@H](C(C)C)C(=O)O[C@@H]4C)c3nc-2c(C(=O)N[C@@H]2C(=O)N[C@H](C(C)C)C(=O)N3CCC[C@H]3C(=O)N(C)CC(=O)N(C)[C@@H](C(C)C)C(=O)O[C@@H]2C)c(N)c1=O [actinomycin D, reference compound] (I: T[dV]P[Sar][NMeV] / II: T[dV]P[Sar][NMeV]; ester I:1-I:C, II:1-II:C; linker I:N-II:N via Actinocin(9to1))
percentage of apoptotic cells (CCF-STTG1 cells): 47.8±0.04%

CCN1C(=O)C(=C/C=C/c2ccco2)C(=O)N(CC)C1=O [DDD00124802]
IC50 (CCF-STTG1 [2]): 31.6 to 100 µM
IC50 (NCI-H1299): 1 to 10 µM
IC50 (Hep G2): 10 to 31.6 µM
IC50 (U87-MG cells; [3]): 10 to 31.6 µM
IC50 (U87-MG cells; [4]): 31.6 to 100 µM

CCN1C(=O)C(=C/C=C/c2ccccc2)C(=O)N(CC)C1=O [DDD00125643]
IC50 (CCF-STTG1 [2]): 1 to 10 µM
IC50 (Hep G2): 10 to 31.6 µM
IC50 (U87-MG cells; [3]): 1 to 10 µM
IC50 (U87-MG cells; [4]): 1 to 10 µM

CCN1C(=O)NC(=O)/C(=C\C=C\c2ccco2)C1=O [DDD00124808]
IC50 (CCF-STTG1 [2]): 10 to 31.6 µM
IC50 (NCI-H1299): 1 to 10 µM
IC50 (Hep G2): 10 to 31.6 µM
IC50 (U87-MG cells; [3]): 10 to 31.6 µM
IC50 (U87-MG cells; [4]): 10 to 31.6 µM

O=C1NC(=S)NC(=O)C1=C/C=C/c1ccco1 [DDD00124818]
IC50 (CCF-STTG1 [2]): 10 to 31.6 µM
IC50 (NCI-H1299): 1 to 10 µM
IC50 (Hep G2): > 100 µM
IC50 (U87-MG cells; [3]): 10 to 31.6 µM
IC50 (U87-MG cells; [4]): 10 to 31.6 µM

CCN1C(=O)C(=C/C=C/c2ccccc2)C(=O)N(CC)C1=S [DDD00124821]
IC50 (CCF-STTG1 [2]): 10 to 31.6 µM
IC50 (NCI-H1299): 10 to 31.6 µM
IC50 (Hep G2): > 100 µM
IC50 (U87-MG cells; [3]): 31.6 to 100 µM
IC50 (U87-MG cells; [4]): 31.6 to 100 µM
